# ChEMBL document CHEMBL1155906, “Structural modifications of N-arylamide oxadiazoles: Identification of N-arylpiperidine oxadiazoles as potent and selective agonists of CB2” (Bioorg Med Chem Lett, 2008)
# Columns and labels:
# [1] = Apparent permeability across pig wild-type LLC-PK1 cells at 5 uM in presence of 0.1% BSA; assay type: ADME, cell-based, Sus scrofa
# [2] = Agonist activity at CXR2 receptor; assay type: functional
# [3] = target: T1, Muscarinic acetylcholine receptor M1 (Homo sapiens, UniProt P11229); experiment: Inhibition of muscarinic M1 receptor
# T1 sequence (P11229 whole entry): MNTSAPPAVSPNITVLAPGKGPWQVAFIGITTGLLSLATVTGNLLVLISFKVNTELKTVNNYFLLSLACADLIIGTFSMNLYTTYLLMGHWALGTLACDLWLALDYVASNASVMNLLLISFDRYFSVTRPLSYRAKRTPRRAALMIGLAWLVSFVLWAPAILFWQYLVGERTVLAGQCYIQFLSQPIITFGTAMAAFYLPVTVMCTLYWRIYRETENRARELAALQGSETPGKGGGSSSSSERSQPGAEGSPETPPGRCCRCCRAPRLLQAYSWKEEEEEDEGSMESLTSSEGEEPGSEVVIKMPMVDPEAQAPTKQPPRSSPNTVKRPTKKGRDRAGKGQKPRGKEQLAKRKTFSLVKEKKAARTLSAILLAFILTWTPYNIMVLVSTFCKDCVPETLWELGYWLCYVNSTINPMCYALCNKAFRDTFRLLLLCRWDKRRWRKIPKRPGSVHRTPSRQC
# [4] = Agonist activity at adrenergic alpha1 receptor; assay type: functional
# [5] = target: T2, Somatostatin receptor type 4 (Homo sapiens, UniProt P31391); experiment: Agonist activity at sst4 receptor; assay type: functional
# T2 sequence (P31391 whole entry): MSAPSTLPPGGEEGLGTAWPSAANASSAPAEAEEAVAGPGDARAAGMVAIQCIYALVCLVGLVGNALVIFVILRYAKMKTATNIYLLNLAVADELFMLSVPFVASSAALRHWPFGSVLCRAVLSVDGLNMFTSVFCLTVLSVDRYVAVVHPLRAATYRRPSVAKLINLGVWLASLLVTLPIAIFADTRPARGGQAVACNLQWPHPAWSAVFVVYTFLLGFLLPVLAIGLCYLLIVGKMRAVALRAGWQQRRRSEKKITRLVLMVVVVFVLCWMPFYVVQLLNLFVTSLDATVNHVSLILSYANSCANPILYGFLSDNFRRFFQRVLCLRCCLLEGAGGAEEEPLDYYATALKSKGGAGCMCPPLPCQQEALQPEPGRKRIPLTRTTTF
# LLC-PK1 [6] = experiment: Ratio of permeability from basolateral to apical side to apical to basolateral side in pig wild-type LLC-PK1 cells at 5 uM in presence of 0.1% BSA; assay type: ADME, cell-based, Sus scrofa; settings: llc-pk1, 5 µM
# Histamine H1 receptor [7] = target: T3, Histamine H1 receptor (Homo sapiens, UniProt P35367); experiment: Agonist activity at histamine H1 receptor; assay type: functional
# T3 sequence (P35367 whole entry): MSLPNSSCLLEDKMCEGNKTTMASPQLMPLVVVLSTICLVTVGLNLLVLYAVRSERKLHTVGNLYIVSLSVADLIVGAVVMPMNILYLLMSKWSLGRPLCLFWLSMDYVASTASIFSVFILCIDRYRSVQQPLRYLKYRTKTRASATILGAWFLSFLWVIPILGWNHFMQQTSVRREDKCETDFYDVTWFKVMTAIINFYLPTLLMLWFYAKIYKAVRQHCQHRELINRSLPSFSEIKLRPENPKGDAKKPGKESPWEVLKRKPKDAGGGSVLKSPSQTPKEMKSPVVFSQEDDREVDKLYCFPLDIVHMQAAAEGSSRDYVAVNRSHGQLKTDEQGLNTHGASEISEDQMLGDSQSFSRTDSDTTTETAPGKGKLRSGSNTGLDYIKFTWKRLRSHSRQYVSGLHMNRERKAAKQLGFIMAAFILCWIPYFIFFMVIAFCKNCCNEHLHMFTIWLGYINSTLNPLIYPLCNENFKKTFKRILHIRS
# [8] = Agonist activity at CCR2b receptor; assay type: functional
# [9] = target: T4, 5-hydroxytryptamine receptor 1A (Homo sapiens, UniProt P08908); experiment: Inhibition of 5HT1A receptor
# T4 sequence (P08908 whole entry): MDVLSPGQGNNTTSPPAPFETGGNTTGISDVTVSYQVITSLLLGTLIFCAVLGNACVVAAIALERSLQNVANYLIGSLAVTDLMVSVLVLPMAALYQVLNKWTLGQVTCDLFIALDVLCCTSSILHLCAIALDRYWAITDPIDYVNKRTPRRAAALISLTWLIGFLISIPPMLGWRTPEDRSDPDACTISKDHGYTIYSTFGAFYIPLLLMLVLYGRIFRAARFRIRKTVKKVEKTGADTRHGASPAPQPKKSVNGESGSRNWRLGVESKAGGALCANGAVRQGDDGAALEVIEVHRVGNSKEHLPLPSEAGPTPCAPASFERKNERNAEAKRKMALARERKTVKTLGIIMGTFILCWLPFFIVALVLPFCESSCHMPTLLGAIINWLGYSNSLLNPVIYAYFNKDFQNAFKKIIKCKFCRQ
# D(2) dopamine receptor [10] = target: T5, D(2) dopamine receptor (Homo sapiens, UniProt P14416); experiment: Agonist activity at dopamine D2 receptor; assay type: functional
# T5 sequence (P14416 whole entry): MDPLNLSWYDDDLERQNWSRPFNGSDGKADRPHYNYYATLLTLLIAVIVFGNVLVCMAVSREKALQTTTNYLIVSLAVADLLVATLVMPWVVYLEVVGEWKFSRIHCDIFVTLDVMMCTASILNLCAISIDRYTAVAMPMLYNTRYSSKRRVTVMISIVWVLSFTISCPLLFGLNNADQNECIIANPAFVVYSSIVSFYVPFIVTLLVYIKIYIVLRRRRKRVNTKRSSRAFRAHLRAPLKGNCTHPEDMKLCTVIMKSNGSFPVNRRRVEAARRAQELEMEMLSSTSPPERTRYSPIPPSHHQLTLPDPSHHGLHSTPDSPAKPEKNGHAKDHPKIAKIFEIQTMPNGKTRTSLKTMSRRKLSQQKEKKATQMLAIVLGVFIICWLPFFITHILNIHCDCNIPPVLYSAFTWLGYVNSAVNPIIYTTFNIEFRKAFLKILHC
# Cannabinoid receptor 2 [11] = target: T6, Cannabinoid receptor 2 (Homo sapiens, UniProt P34972); experiment: Agonist activity at human CB2 receptor expressed in insect Sf9 cells assessed as effect on Eu-GTP binding relative to CP-55940
# T6 sequence (P34972 whole entry): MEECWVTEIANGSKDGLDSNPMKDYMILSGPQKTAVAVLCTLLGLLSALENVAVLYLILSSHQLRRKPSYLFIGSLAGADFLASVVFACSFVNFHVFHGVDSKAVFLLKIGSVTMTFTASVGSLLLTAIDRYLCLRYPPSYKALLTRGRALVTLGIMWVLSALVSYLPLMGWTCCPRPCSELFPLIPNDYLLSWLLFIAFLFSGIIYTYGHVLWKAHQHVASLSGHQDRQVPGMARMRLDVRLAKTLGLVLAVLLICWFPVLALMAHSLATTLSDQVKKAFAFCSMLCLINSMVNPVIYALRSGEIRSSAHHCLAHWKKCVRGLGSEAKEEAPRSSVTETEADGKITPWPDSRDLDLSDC
# [12] = AUC (0 to 24 hrs) in Sprague-Dawley rat at 10 mg/kg, po; assay type: ADME, organism-based; parameters: time < 24 hr, dose 10 mg/kg, route oral; settings: plasma
# [13] = Metabolic stability in rat liver microsome assessed as intrinsic clearance; assay type: ADME; settings: liver microsomes
# [14] = target: T7, 5-hydroxytryptamine receptor 2B (Homo sapiens, UniProt P41595); experiment: Agonist activity at 5HT2B receptor; assay type: functional
# T7 sequence (P41595 whole entry): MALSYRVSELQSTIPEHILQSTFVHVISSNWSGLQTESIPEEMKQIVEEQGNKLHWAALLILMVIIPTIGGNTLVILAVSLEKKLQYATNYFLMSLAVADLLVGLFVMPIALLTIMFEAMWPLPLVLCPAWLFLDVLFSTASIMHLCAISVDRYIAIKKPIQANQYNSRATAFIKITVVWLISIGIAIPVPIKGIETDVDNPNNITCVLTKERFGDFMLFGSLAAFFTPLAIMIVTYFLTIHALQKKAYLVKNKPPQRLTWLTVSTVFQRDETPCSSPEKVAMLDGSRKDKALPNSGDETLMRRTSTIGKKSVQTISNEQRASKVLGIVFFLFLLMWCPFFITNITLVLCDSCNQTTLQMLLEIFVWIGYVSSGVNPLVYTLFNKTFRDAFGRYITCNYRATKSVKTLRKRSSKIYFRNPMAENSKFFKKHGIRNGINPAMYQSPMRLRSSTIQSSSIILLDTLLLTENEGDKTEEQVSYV
# [15] = Half life in Sprague-Dawley rat at 0.5 mg/kg, iv; assay type: ADME, organism-based; parameters: dose 0.5 mg/kg, route intravenous; settings: in vivo
# [16] = Clearance in Sprague-Dawley rat at 0.5 mg/kg, iv; assay type: ADME, organism-based; parameters: dose 0.5 mg/kg, route intravenous; settings: in vivo
# [17] = target: T1, Muscarinic acetylcholine receptor M1; experiment: Agonist activity at muscarinic M1 receptor; assay type: functional
# [18] = target: T4, 5-hydroxytryptamine receptor 1A; experiment: Agonist activity at 5HT1A receptor; assay type: functional
# Cannabinoid receptor 1 [19] = target: T8, Cannabinoid receptor 1 (Homo sapiens, UniProt P21554); experiment: Agonist activity at human CB1 receptor assessed as inhibition of forskolin-induced increase in intracellular cAMP relative to CP-55940; assay type: functional, cell-based
# T8 sequence (P21554 whole entry): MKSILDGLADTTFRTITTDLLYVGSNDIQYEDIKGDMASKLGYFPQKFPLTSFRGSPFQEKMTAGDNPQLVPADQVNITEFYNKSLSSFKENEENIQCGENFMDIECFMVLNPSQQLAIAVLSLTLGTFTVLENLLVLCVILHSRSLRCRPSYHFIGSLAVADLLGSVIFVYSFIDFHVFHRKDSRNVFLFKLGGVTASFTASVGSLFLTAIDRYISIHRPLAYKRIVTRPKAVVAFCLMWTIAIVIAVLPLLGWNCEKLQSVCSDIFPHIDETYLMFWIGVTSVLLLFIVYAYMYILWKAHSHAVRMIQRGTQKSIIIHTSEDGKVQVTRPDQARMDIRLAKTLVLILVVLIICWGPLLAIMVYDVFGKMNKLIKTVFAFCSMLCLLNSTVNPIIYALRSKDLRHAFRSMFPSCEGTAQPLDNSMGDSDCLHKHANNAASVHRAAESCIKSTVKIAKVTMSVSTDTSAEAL
# human MDR1 (P-gp) = experiment: Apparent permeability across pig LLC-PK1 cells transfected with human MDR1 at 5 uM in presence of 0.1% BSA; assay type: ADME, cell-based, Sus scrofa
# [20] = Metabolic stability in human liver microsome assessed as intrinsic clearance; assay type: ADME; settings: liver microsomes
# D(2) dopamine receptor [21] = target: T5, D(2) dopamine receptor; experiment: Inhibition of dopamine D2 receptor
# [22] = Solubility in 0.01 N HCl; assay type: physicochemical
# [23] = Inhibition of adrenergic alpha1 receptor
# LLC-PK1 [24] = experiment: Ratio of permeability from basolateral to apical side to apical to basolateral side in pig LLC-PK1 cells expressing human MDR1 at 5 uM in presence of 0.1% BSA; assay type: ADME, cell-based, Sus scrofa; settings: llc-pk1, 5 µM
# [25] = target: T2, Somatostatin receptor type 4; experiment: Inhibition of sst4 receptor
# Cannabinoid receptor 1 [26] = target: T8, Cannabinoid receptor 1; experiment: Agonist activity at human CB1 receptor expressed in insect Sf9 cells assessed as effect on Eu-GTP binding relative to CP-55940
# Cannabinoid receptor 2 [27] = target: T6, Cannabinoid receptor 2; experiment: Agonist activity at human CB2 receptor assessed as inhibition of forskolin-induced increase in intracellular cAMP relative to CP-55940; assay type: functional, cell-based
# [28] = Inhibition of CCR2b receptor
# [29] = target: T9, Beta-1 adrenergic receptor (Homo sapiens, UniProt P08588); experiment: Inhibition of adrenergic beta-1 receptor
# T9 sequence (P08588 whole entry): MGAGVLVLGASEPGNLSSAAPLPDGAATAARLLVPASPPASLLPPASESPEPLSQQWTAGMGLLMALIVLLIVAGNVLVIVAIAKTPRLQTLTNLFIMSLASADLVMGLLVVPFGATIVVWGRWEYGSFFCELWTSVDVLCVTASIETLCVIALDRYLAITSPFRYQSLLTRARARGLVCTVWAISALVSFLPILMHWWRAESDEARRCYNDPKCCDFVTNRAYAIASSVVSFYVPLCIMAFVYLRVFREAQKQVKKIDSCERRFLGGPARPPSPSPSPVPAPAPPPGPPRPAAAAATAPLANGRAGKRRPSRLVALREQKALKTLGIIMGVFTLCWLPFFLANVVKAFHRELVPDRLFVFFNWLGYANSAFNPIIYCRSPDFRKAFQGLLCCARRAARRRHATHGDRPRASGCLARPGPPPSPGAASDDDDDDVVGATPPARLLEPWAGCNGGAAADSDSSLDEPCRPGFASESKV
# [30] = Inhibition of CXR2 receptor
# [31] = target: Voltage-gated inwardly rectifying potassium channel KCNH2 (Homo sapiens, UniProt Q12809); experiment: Displacement of radiolabeled dofetilide from human ERG
# Substance-P receptor [32] = target: T10, Substance-P receptor (Homo sapiens, UniProt P25103); experiment: Inhibition of NK1 receptor
# T10 sequence (P25103 whole entry): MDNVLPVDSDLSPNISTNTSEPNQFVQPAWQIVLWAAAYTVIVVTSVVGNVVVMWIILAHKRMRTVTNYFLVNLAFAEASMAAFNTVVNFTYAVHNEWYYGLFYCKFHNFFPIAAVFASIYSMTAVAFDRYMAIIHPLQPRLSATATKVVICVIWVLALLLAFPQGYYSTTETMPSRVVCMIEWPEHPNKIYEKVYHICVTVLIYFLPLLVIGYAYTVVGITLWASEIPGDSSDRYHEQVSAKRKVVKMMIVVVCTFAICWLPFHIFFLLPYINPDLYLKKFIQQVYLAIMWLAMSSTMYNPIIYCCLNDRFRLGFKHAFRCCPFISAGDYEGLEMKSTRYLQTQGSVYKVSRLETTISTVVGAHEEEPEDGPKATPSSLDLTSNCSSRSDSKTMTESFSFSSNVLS
# Cannabinoid receptor 2 [33] = target: T6, Cannabinoid receptor 2; experiment: Agonist activity at human CB2 receptor assessed as inhibition of forskolin-induced increase in intracellular cAMP; assay type: functional, cell-based
# Cannabinoid receptor 1 [34] = target: T8, Cannabinoid receptor 1; experiment: Agonist activity at human CB1 receptor assessed as inhibition of forskolin-induced increase in intracellular cAMP; assay type: functional, cell-based
# Cannabinoid receptor 2 [35] = target: T6, Cannabinoid receptor 2; experiment: Agonist activity at human CB2 receptor expressed in insect Sf9 cells assessed as effect on Eu-GTP binding
# [36] = Solubility in simulated intestinal fluid; assay type: physicochemical
# Cannabinoid receptor 1 [37] = target: T8, Cannabinoid receptor 1; experiment: Agonist activity at human CB1 receptor expressed in insect Sf9 cells assessed as effect on Eu-GTP binding
# [38] = Cmax in Sprague-Dawley rat at 10 mg/kg, po; assay type: ADME, organism-based; parameters: dose 10 mg/kg, route oral; settings: in vivo
# [39] = Solubility in phosphate buffer saline; assay type: physicochemical; settings: phosphate buffered saline
# [40] = Volume of distribution at steady state in Sprague-Dawley rat at 0.5 mg/kg, iv; assay type: ADME, organism-based; parameters: dose 0.5 mg/kg, route intravenous; settings: in vivo, read-out: Vdss
# Histamine H1 receptor [41] = target: T3, Histamine H1 receptor; experiment: Inhibition of histamine H1 receptor
# Mu-type opioid receptor [42] = target: T11, Mu-type opioid receptor (Homo sapiens, UniProt P35372); experiment: Inhibition of mu opioid receptor
# T11 sequence (P35372 whole entry): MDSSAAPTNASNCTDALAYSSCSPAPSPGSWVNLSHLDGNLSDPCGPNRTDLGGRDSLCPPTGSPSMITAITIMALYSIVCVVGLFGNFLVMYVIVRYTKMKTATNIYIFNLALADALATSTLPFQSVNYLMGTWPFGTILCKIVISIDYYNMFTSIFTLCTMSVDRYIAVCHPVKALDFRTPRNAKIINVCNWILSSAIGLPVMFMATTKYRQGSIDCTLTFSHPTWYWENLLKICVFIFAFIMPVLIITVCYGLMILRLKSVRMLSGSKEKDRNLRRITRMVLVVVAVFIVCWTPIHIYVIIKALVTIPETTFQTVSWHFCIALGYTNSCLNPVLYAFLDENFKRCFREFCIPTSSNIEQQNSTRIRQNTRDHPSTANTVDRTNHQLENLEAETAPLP
# Mu-type opioid receptor [43] = target: T11, Mu-type opioid receptor; experiment: Agonist activity at mu opioid receptor; assay type: functional
# Substance-P receptor [44] = target: T10, Substance-P receptor; experiment: Agonist activity at NK1 receptor; assay type: functional
# [45] = target: T7, 5-hydroxytryptamine receptor 2B; experiment: Inhibition of 5HT2B receptor
# [46] = target: T9, Beta-1 adrenergic receptor; experiment: Agonist activity at adrenergic beta-1 receptor; assay type: functional
# [47] = Bioavailability in Sprague-Dawley rat at 10 mg/kg, po; assay type: ADME, organism-based; settings: in vivo
structure (smiles),measurement,setting,value
Fc1ccc(-c2noc(C3CCN(c4cnc5ccc(Cl)cc5c4)CC3)n2)c(Cl)c1,Papp at 5 µM,[1],9.95 ×10⁻⁶ cm/s
same,EC50,[2],> 50 µM
same,IC50,[3],> 50 µM
same,EC50,[4],> 50 µM
same,EC50,[5],> 50 µM
same,Ratio,LLC-PK1 [6],0.9
same,EC50,Histamine H1 receptor [7],> 50 µM
same,EC50,[8],> 50 µM
same,IC50,[9],> 50 µM
same,EC50,D(2) dopamine receptor [10],> 50 µM
same,Emax,Cannabinoid receptor 2 [11],120%
same,AUC(0-t) at 24 h,[12],5240 ng·h/mL
same,microsomal CLint,[13],32 µL/min/mg
same,EC50,[14],> 50 µM
same,half-life,[15],8.9 h
same,clearance,[16],0.65 mL/min/kg
same,EC50,[17],> 50 µM
same,EC50,[18],> 50 µM
same,Emax,Cannabinoid receptor 1 [19],19%
same,Papp at 5 µM,human MDR1 (P-gp),10.7 ×10⁻⁶ cm/s
same,microsomal CLint,[20],38 µL/min/mg
same,IC50,D(2) dopamine receptor [21],> 50 µM
same,solubility,[22],< 1 µg/mL
same,IC50,[23],> 50 µM
same,Ratio,LLC-PK1 [24],0.9
same,IC50,[25],> 50 µM
same,Emax,Cannabinoid receptor 1 [26],55%
same,Emax,Cannabinoid receptor 2 [27],102%
same,IC50,[28],> 50 µM
same,IC50,[29],> 50 µM
same,IC50,[30],> 50 µM
same,IC50,[31],0.5 µM
same,IC50,Substance-P receptor [32],> 50 µM
same,EC50,Cannabinoid receptor 2 [33],0.011 µM
same,EC50,Cannabinoid receptor 1 [34],> 2 µM
same,EC50,Cannabinoid receptor 2 [35],0.007 µM
same,solubility,[36],2 µg/mL
same,EC50,Cannabinoid receptor 1 [37],1.43 µM
same,Cmax,[38],682 ng/mL
same,solubility,[39],< 1 µg/mL
same,Vd,[40],0.365 L/kg
same,IC50,Histamine H1 receptor [41],> 50 µM
same,IC50,Mu-type opioid receptor [42],> 50 µM
same,EC50,Mu-type opioid receptor [43],> 50 µM
same,EC50,Substance-P receptor [44],> 50 µM
same,IC50,[45],> 50 µM
same,EC50,[46],> 50 µM
same,bioavailability,[47],2%
